Measurements: the METLIN SMRT retention time set (Domingo-Almenara et al. 2019)

Assay: gradient 5% acetonitrile 3 min, to 50% in 2 min, to 85% in 15 min, held 3 min, 100 µL/min
Details: column: Zorbax Extend-C18 2.1 x 50 mm; eluents: water / acetonitrile, 0.1% formic acid
Outline: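 Retention times of pure standards were taken from adduct peaks that were selected by computer and manually inspected. Over 3 months, mixtures of ~100 molecules were run by HPLC–quadrupole time-of-flight mass spectrometry in positive and negative ionization mode. The Zorbax Extend-C18 column (2.1 × 50 mm, 1.8 μm) ran at 100 μL/min in water and acetonitrile, each containing 0.1% formic acid, with 40 μL dead volume and 900 μL dwell volume.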

In order of rising RP-LC retention time:
1. CC(=O)N[C@@H]1CN(C(=O)c2ccc3ncccc3c2)C[C@H]1CO  536 s
2. Cc1cc(N2CCN(C(=O)C3CCC3)CC2)nc2nncn12  566 s
3. C=CCc1ccccc1OCC(O)CNC (configuration not stated)  566 s
4. Cc1nccn1CCNC(=O)C(=O)Nc1ccc2c(c1)N(C(=O)C(C)C)CCC2  571 s
5. CNC(=O)c1c2c(nc3ccc(F)cc13)CCCC2  571 s
6. COc1ccc(CCS(=O)(=O)NCC(c2cccn2C)N2CCOCC2)cc1 (configuration not stated)  594 s
7. COCCC1CCN(C(=O)C2CCN(C(C)=O)CC2)CC1  606 s
8. Cc1cccc(CN2CCCn3nc(C(=O)NCCc4cnc[nH]4)cc3C2=O)c1  610 s
9. Cc1cccn2c(=O)nc(SCC(=O)NCc3ccco3)nc12  610 s
10. CCCCC(=O)Nc1ccc(-c2cn3ccc(C)nc3n2)cc1  612 s
11. CNC(=O)[C@@H]1CN(C(=O)c2noc(C)c2COC)C[C@H]1c1nc(C)no1  619 s
12. O=C(C1CCN(c2cnc3nccnc3c2)CC1)N1CCC2(CC1)OCCO2  620 s
13. Cn1cc(-c2ccncc2)cc1C(=O)N1CCN(c2ccc(F)cc2)CC1  632 s
14. O=C1C(c2cccnc2)N(Cc2ccc3c(c2)OCO3)C(=O)CN1c1ccccc1 (configuration not stated)  636 s
15. CC(C(=O)NCCCN1CCN(C2CCCCC2)CC1)n1c(=O)c(C(F)(F)F)nc2ccccc21 (configuration not stated)  639 s
16. CC(C)n1c(CCNC(=O)c2ccccc2)nc2cccnc21  640 s
17. Cc1nc(C)c(C(=O)N2CCC(c3noc(-c4ccccn4)n3)C2)s1 (configuration not stated)  648 s
18. CCCN1C(=O)Cc2cc(C(=O)NC3CC3)ccc21  652 s
19. O=C(NCc1ccco1)C1CCCN(c2ccc(-c3ccccc3)nn2)C1 (configuration not stated)  654 s
20. COc1ccc(-n2ccn3c(CCC(=O)N4CCN(c5ccccn5)CC4)nnc3c2=O)cc1  663 s
21. Cc1ccccc1/C=C/C1=NCCN1  665 s
22. O=C(Cn1cnc2nc(N3CCCC(C(=O)NC4CC4)C3)sc2c1=O)Nc1cccc(Cl)c1 (configuration not stated)  665 s
23. Cc1nn(-c2ccccc2)cc1C(=O)N1CCC(CC(=O)N2CCOCC2)CC1  669 s
24. OCCNCc1ccc(-c2cc(Cl)cc(Cl)c2)o1  676 s
25. CC(=O)N1CCc2cc(-c3ccc(C(=O)NC4CCS(=O)(=O)C4)cc3)ccc21 (configuration not stated)  676 s
26. CC1CCN(CC2CCN(S(=O)(=O)c3ccc(F)c(Cl)c3)CC2)CC1  688 s
27. O=C(C1CCCO1)N1CCCn2nc(-c3cccs3)cc2C1 (configuration not stated)  689 s
28. CCn1cnc(S(=O)(=O)N2CCC(C(=O)Nc3ccccc3)CC2)c1  701 s
29. Cc1cccc(NC(=O)Nc2ccc(C)n(CC(=O)O)c2=O)c1  721 s
30. Cc1ccc(S(=O)(=O)Nc2cc(-c3cn4cccc(C)c4n3)ccc2C)cc1C  729 s
31. Cc1ccccc1CNS(=O)(=O)c1c[nH]c2ncccc12  730 s
32. Cn1cnc2ccc(-c3noc(Cc4ccccc4Cl)n3)cc21  738 s
33. COc1ccc(N2CC(c3nc(-c4ccc(CNC(=O)C5CC5)s4)no3)CC2=O)cc1 (configuration not stated)  748 s
34. CSc1ccc(-c2nc3cc(C)ccn3c2Nc2ccc3c(c2)OCO3)cc1  748 s
35. CC(=O)Nc1ccc(NC(=O)C2CCN(S(=O)(=O)c3c(C)nn(-c4ccccc4)c3C)CC2)cc1  754 s
36. O=C(Cn1nc(C(=O)N2CCCC2)c2ccccc21)NCc1ccc2c(c1)OCO2  757 s
37. Cc1ccc(NC(=O)N2CCC3(CC2)NC(=O)c2ccccc2O3)cc1F  799 s
38. CCCN(C)c1nccn2c(=O)n(CC(=O)Nc3ccc(F)cc3)nc12  806 s
39. COc1ccc(-c2c(C)noc2NC(C)=O)cc1S(=O)(=O)Nc1ccc(Cl)cc1F  807 s
40. CCNC(=O)c1cnn(-c2cc(-c3nc(C4CC4)no3)ccn2)c1C  826 s
41. Cc1cc2c(c(=O)n(-c3ccc(F)cc3)c(=O)n2CC(=O)Nc2ccccc2F)n1C  837 s
42. O=C(CCc1ccc2[nH]ccc2c1)N1CCN(c2ccccc2)CC1  856 s
43. COCCN1C(=O)Cc2ccccc2C1C(=O)NCc1ccc(C(C)C)cc1 (configuration not stated)  861 s
44. COCCn1cc(C(=O)Nc2ccc(C(C)=O)cc2)c2nn(-c3ccccc3)c(=O)c-2c1  865 s
45. COc1cc(OC)c(NC(=O)NC2CCN(c3ccc(C)cc3)C2=O)cc1Cl (configuration not stated)  873 s
46. COC(=O)c1cccc(NC(=O)c2cnc3c(c2)c(=O)n(C)c(=O)n3-c2ccccc2)c1  874 s
47. O=C(NCCSCc1ccco1)c1cc(-c2ccccn2)nc2ccccc12  885 s
48. COc1ccc(N2CCN(c3cc(SCC(=O)Nc4cccc(C#N)c4)ncn3)CC2)cc1  895 s
49. CCOC(=O)N1CCc2c(sc(NC(=O)C3CC3)c2-c2nc3ccccc3s2)C1  905 s
50. Cc1ccc(NC(=O)N2CCC(CCNC(=O)C3(c4ccccc4)CC3)CC2)cc1  923 s
51. Cn1c(=O)c(=O)n(C)c2cc(N3CCCCC3)c(NC(=O)C3CCCCC3)cc21  940 s
52. CC1(C(=O)NC2CCCCCCC2)CN(S(C)(=O)=O)CC(=O)N1c1ccc(Cl)cc1 (configuration not stated)  952 s
53. CC1(C)CC(=O)c2cn(-c3ccc(F)cc3)c(=O)c(C(=O)NC3CCCC3)c2C1  957 s
54. COc1ccc(N2CCN(c3cc(SCC(=O)Nc4ccc(OC)c(Cl)c4)ncn3)CC2)cc1  967 s
55. Cc1cccc(-c2noc(CCn3nc(-c4ccc5c(c4)OCO5)ccc3=O)n2)c1  976 s
56. Cn1nnc2ccc(-c3noc(-c4ccc(F)cc4)n3)cc21  981 s
57. O=c1n(Cc2cccc(F)c2)nc2ccc(S(=O)(=O)N3CCc4ccccc4C3)cn12  987 s
58. Cc1nc(-c2csc(S(=O)(=O)N3CCC(C(=O)NC4CCCCCCC4)CC3)c2)no1  995 s
59. COc1ccc(-c2nnc(Cc3nc(-c4cccc(Cl)c4)no3)o2)cc1OC  995 s
60. O=c1c(S(=O)(=O)N2CCCCCC2)cccn1Cc1cc(F)cc(F)c1  999 s
61. Cc1cccc(NC(=O)C2CCCN(S(=O)(=O)N3CCC(C)CC3)C2)c1C (configuration not stated)  1030 s
62. CCN(CC)C(=O)c1cnc2snc(C)c2c1N1CCC(C(=O)Nc2ccc(C(C)C)cc2)CC1  1040 s
63. CCn1cc(-c2nc(-c3cccc(Br)c3)no2)c(=O)c2cc(F)c(N3CCOCC3)cc21  1050 s
64. COc1ccc(-c2nc(Nc3ccc(C)cc3)sc2C)cc1  1060 s
65. COC(=O)c1ccc2c(=O)n(-c3cccc(C)c3)c(N3CCSCC3)nc2c1  1110 s
66. Cc1cc(C)n(C(=O)COc2ccc(Cl)cc2C)n1  1160 s
67. Cc1cccc(-c2noc(Cc3nc(-c4ccc(F)cc4)cs3)n2)c1  1260 s
